Patent US9944654B2, “Nargenicin compounds and uses thereof as antibacterial agents” (priority 2014, dated 2018)
Values after ≈ are worked out from the molar mass of the structure shown. Read-outs that look alike come from different tables or passages of the source.

How the values were obtained:
[1] = biological target: T1, E. coli DnaE (DNA polymerase III α-subunit from Escherichia coli) (Escherichia coli, UniProt P10443); test: In vitro DnaE single enzyme assay (E. coli); type: biochemical; details: E. coli DnaE IC50
T1 construct: EcDnaE (E. coli DnaE residues 1-1160); 6xHis (N); made in house; host or cells: E. coli BL21(DE3)
T1 sequence (P10443 whole entry, the tested form may be a part): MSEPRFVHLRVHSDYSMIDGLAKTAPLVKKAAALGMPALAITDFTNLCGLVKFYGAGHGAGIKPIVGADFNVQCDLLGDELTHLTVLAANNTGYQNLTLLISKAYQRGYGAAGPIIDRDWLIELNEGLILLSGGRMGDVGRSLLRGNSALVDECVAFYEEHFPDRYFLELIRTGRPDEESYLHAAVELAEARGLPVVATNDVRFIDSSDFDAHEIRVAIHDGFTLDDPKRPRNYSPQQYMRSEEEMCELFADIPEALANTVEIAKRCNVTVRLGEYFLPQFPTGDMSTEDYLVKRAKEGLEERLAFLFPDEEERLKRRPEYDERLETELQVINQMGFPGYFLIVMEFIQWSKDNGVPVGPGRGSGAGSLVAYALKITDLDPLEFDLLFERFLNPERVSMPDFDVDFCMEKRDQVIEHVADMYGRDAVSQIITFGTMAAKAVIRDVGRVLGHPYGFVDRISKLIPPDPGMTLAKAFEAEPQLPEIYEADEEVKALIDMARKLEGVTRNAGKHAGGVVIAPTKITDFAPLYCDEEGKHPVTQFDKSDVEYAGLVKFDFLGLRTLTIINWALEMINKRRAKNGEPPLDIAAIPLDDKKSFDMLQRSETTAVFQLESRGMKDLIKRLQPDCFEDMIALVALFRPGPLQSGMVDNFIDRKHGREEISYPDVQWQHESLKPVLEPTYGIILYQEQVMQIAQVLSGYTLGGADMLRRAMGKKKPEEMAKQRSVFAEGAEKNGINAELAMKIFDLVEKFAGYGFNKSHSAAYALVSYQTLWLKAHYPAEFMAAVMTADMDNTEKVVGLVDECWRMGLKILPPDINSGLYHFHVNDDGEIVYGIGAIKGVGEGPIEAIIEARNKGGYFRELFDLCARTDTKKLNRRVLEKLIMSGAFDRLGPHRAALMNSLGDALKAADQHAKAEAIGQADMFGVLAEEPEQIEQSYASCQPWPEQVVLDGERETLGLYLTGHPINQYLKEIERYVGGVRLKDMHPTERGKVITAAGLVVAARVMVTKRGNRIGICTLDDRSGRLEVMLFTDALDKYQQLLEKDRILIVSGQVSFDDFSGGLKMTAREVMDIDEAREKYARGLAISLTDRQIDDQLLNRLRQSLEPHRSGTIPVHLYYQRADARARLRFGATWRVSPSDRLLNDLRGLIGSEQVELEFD
Method: (§1) Plasmids encoding EcDnaE (E. coli DnaE residues 1-1160) and SaDnaE (S. aureus DnaE residues 1-1065) with 6×His N-terminal tags, were overexpressed in BL21(DE3) and BL21-AI cells (Invitrogen), respectively. Cells were grown in LB media to an OD ˜0.45 pelleted and then resuspended in Minimal Media, as described in Pryor et al. (1997, Protein Expr Purif. 10:309-19), and inducer (0.4 mM IPTG or 0.2% arabinose) for 21 hours at 18° C. at 220 rpm. Cells were then harvested, frozen for 20 minutes at −80° C. and thawed. Pellets were resuspended in 1× Talon buffer (50 mM Sodium Phosphate, 300 mM Sodium Chloride, pH 7.4) +10% glycerol +Roche PI's (-EDTA). Cells were lysed with two passes through a French press, then centrifuged for 45 minutes at 40,000 rpm (70Ti, Beckman). Supernatant was bound to 5 mL TALON resin (CLONTECH) for 1 hour at room temperature on Nutator. TALON resin was washed with 10 mM imidizole, and DnaE was eluted with 250 mM imidizole. Eluate was concentrated and run on a size exclusion column (SEC200, GE Healthcare) in the following buffer; 25 mM HEPES, 30 mM NaCl,1 mM CaCl2, 5% glycerol, pH 7.9. Pool SEC fractions based on SDS-PAGE run, aliquot, freeze, and store at -80° C.
(§2) DnaE was diluted in 50 mM potassium phosphate pH 7.5, 5 mM BME, 10% glycerol and 200 mM NaCl prior to use.
(§3) The purpose of the DnaE single enzyme assay is to determine the ability of compounds to inhibit the DNA polymerase III α-subunit homolog from Staphylococcus aureus or the α-subunit from Escherichia coli without the other components of the replication machinery. The DnaE single enzyme assay was a modified version of the method, Standard Pol III Assay Using Activated DNA and Four dNTPs, described by Butler et al., 2008, Methods in Molecular Medicine: New Antibiotic Targets 142:25-36. Briefly, in 96-well plates, enzyme was added to a mixture containing 30 mM Tris-HCl pH 7.5, 20% glycerol, 4 mM DTT, 10 mM Mg acetate, 0.025 mM dATP, 0.025 mM dGTP, 0.025 mM dc:TP, 0.011 mM ^3H-dTTP 1 mCi/ml (Perkin-Elmer), and 0.298 mg/mL Dnase I (Sigma) treated “activated” Calf Thymus DNA (Worthington Biochemical). The assay was set up so that 5 μl of compound was distributed to the plates, 90 μl of reaction mix was added to the compound, and 5 μl of enzyme was added to start the reaction. Assays were initiated by the addition of 0.8 μg/ml E. coli or 0.05 μg/ml S. aureus DnaE, incubated for 30 min at 30° C., and terminated by the addition of a 20% trichloroacetic acid and 0.2% sodium pyrophosphate solution. Precipitated labeled DNA was collected on Glass-fiber Filtermat A using Micro96 Harvester, and the filters were washed, dried, and counted in a Microbeta Trilux (Perkin Elmer). Serial dilutions of compounds (in DMSO) were added to the plates before enzyme addition.

[2] = biological target: T2, S. aureus DnaE (DNA polymerase III α-subunit homolog from Staphylococcus aureus) (Staphylococcus aureus, UniProt Q5HF71); test: biochemical; type: biochemical
T2 construct: SaDnaE (S. aureus DnaE residues 1-1065); 6xHis (N); made in house; host or cells: E. coli BL21-AI
T2 sequence (Q5HF71 1-1065): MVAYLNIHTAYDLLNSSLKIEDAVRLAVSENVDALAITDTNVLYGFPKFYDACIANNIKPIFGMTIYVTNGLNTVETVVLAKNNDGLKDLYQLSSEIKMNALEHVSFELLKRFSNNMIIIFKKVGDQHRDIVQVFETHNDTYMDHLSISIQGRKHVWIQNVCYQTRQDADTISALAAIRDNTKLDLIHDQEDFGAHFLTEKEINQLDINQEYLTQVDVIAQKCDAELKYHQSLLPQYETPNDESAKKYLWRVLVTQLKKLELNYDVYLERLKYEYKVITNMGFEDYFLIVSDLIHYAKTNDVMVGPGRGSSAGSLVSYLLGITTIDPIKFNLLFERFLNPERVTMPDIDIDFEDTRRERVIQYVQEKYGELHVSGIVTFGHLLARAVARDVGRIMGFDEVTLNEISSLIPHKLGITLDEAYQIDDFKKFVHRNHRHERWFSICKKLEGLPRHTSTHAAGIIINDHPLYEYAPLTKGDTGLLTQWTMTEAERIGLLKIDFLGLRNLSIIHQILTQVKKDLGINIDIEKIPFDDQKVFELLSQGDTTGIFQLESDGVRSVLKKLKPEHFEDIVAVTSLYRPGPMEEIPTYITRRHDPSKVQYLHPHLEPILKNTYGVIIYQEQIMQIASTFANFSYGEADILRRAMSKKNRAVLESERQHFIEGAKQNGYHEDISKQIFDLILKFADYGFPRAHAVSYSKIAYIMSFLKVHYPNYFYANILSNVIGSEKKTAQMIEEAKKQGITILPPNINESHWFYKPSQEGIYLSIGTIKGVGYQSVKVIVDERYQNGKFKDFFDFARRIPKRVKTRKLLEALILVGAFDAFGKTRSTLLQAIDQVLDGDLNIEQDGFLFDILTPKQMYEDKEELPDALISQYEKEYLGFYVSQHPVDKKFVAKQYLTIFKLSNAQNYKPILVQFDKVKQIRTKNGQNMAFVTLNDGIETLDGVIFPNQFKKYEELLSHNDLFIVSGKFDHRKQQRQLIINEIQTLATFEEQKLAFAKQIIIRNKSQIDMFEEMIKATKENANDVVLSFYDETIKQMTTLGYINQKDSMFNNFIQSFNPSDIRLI
Method: as §1, §2, §3

[3] = tested on: Escherichia coli MB5747 (LS 883, tolC); test: microbe, parasite or virus in culture; type: cell-based; details: Escherichia coli, read-out: E. coli LS883 tolC (MIC), MHII broth; * = some reduction of growth versus control at […]
[4] = tested on: Pseudomonas aeruginosa MB5890 (CB1101, efflux-deleted); test: microbe, parasite or virus in culture; type: cell-based; details: Pseudomonas aeruginosa, read-out: P. aeruginosa MB5890 efflux-del (MIC), MHII broth; * = some reduction of growth versus control at […]
[5] = tested on: Streptococcus pneumoniae MB6357 (CL 2883); test: Nargenicin antibacterial assay (MIC), S. pneumoniae; type: cell-based; details: Streptococcus pneumoniae
[6] = read-out: S. aureus DnaE IC50 (converted)
[7] = read-out: S. pneumoniae MB2883 (MIC)

Row | SMILES | IC50 [1] | IC50 ([2]; S. aureus DnaE IC50) | IC50 [2, 6] | MIC [3] | MIC [4] | MIC [5, 7] | MIC ([5]; read-out: S. pneumoniae MB2883 (MIC), Isosensitest broth, * = some reduction of growth versus control at […])
1 | CO[C@H]1CC2C=C[C@H]3[C@H]4O[C@]2(/C(C)=C/[C@@H](C)[C@@H]([C@@H](C)OC(=O)OCCCO)OC1=O)[C@@H]3[C@H](O)[C@@H](C)[C@H]4OC(=O)c1ccc[nH]1 (stereo partly drawn) [Example 26, (3R,4S,7S,10aR,11R,12R,13R,14R,14aS,14bS,E)-14-hydroxy-4-((R)-1-(((3-hydroxypropoxy)carbonyl)oxy)ethyl)-7-methoxy-1,3,13-trimethyl-6-oxo-3,4,6,7,8,8a,10a,11,12,13,14,14a-dodecahydro-11,14b-epoxynaphtho[2,1-e]oxecin-12-yl 1H-pyrrole-2-carboxylate] | 130 µM | < 0.00971 µM | – | – | – | – | –
2 | CO[C@H]1C[C@H]2C=CC3C4[C@H](O)[C@@H](C)[C@@H](OC(=O)c5ccc[nH]5)[C@@H]3O[C@]42/C(C)=C/[C@@H](C)[C@@H]([C@@H](C)OC(=O)C(=O)OCc2cccnc2)OC1=O.O=C(O)C(F)(F)F [Example 208] | 3.41 µM | – | < 0.00757 µM | 1 µg/mL | 32 µg/mL | > 128 µg/mL | –
3 | CO[C@H]1C[C@H]2C=C[C@H]3[C@H]4O[C@]2(/C(C)=C/[C@@H](C)[C@@H]([C@@H](C)OCSC)OC1=O)[C@@H]3C(=O)[C@@H](C)[C@H]4OC(=O)c1ccc[nH]1 [Example 58] | 36.6 µM | – | > 174 µM | > 8 µg/mL | > 128 µg/mL | – | > 128 µg/mL
4 | CO[C@H]1C[C@H]2C=C[C@H]3[C@H]4O[C@]2(/C(C)=C/[C@@H](C)[C@@H]([C@@H](C)O)OC1=O)[C@@H]3[C@H](O)[C@@H](C)[C@H]4OC(=O)c1ccsc1 [Example 183] | 9.76 µM | – | < 0.0113 µM | 1 µg/mL (≈ 1.88 µM) | 16 µg/mL (≈ 30 µM) | 64 µg/mL (≈ 120 µM) | –
5 | CC[C@H]1OC(=O)[C@@H](OC)C[C@H]2C=C[C@H]3[C@H]4O[C@]2(/C(C)=C/[C@H]1C)[C@@H]3[C@H](O)C(C)[C@H]4C[N+](=O)[O-] (stereo partly drawn) [Example 190, (3R,4R,7S,8aS,10aR,11R,12S,14R,14aS,14bS,E)-4-ethyl-14-hydroxy-7-methoxy-1,3,13-trimethyl-12-(nitromethyl)-3,4,8,8a,10a,11,12,13,14,14a-decahydro-11,14b-epoxynaphtho[2,1-e]oxecin-6(7H)-one] | 66.7 µM | – | 6.67 µM | 64 µg/mL (≈ 142 µM) | > 64 µg/mL | > 64 µg/mL | –
6 | CO[C@H]1CC2C=C[C@H]3[C@H]4O[C@]2(/C(C)=C/[C@@H](C)[C@@H]([C@@H](C)OC(=O)NC(CO)(CO)CO)OC1=O)[C@@H]3[C@H](O)[C@@H](C)[C@H]4OC(=O)c1ccc[nH]1 (some centres unmarked) [Example 22] | > 151 µM | – | < 0.00905 µM | 4 µg/mL (≈ 6.04 µM) | 64 µg/mL (≈ 96.6 µM) | 64 µg/mL (≈ 96.6 µM) | –
7 | CO[C@H]1C[C@H]2C=C[C@H]3[C@H]4O[C@]2(/C(C)=C/[C@@H](C)[C@@H]([C@@H](C)O)OC1=O)[C@@H]3[C@H](O)[C@@H](C)[C@H]4OCc1ccsc1 [Example 184] | 75.2 µM | – | 0.0771 µM | 8 µg/mL (≈ 15.4 µM) | 64 µg/mL (≈ 123 µM) | 64 µg/mL (≈ 123 µM) | –
8 | CO[C@H]1C[C@H]2C=C[C@H]3[C@H]4O[C@]2(/C(C)=C/[C@@H](C)[C@@H]([C@@H](C)O)OC1=O)[C@@H]3[C@H](O)[C@@H](C)[C@@H]4N1CCCC1 [Example 161, (3R,4S,7S,8aS,10aR,11R,12S,13S,14R,14aS,14bS,E)-14-hydroxy-4-((R)-1-hydroxyethyl)-7-methoxy-1,3,13-trimethyl-12-(pyrrolidin-1-yl)-3,4,8,8a,10a,11,12,13,14,14a-decahydro-11,14b-epoxynaphtho[2,1-e]oxecin-6(7H)-one] | > 105 µM | – | 46.3 µM | > 64 µg/mL | > 64 µg/mL | > 64 µg/mL | –
9 | CO[C@H]1C[C@H]2C=C[C@H]3[C@H]4O[C@]2(/C(C)=C/[C@@H](C)[C@@H]([C@@H](C)OC(=O)CBr)OC1=O)[C@@H]3[C@H](O)[C@@H](C)[C@H]4OC(=O)c1ccc[nH]1 [Example 56, (3R,4S,7S,8aS,10aR,11R,12R,13R,14R,14aS,14bS,E)-4-((R)-1-(2-bromoacetoxy)ethyl)-14-hydroxy-7-methoxy-1,3,13-trimethyl-6-oxo-3,4,6,7,8,8a,10a,11,12,13,14,14a-dodecahydro-11,14b-epoxynaphtho[2,1-e]oxecin-12-yl 1H-pyrrole-2-carboxylate] | 48.7 µM | < 0.00943 µM | – | – | – | – | –
10 | CCCNC(=O)O[C@H](C)[C@H]1OC(=O)[C@@H](OC)C[C@H]2C=C[C@H]3[C@H]4O[C@]2(/C(C)=C/[C@H]1C)[C@@H]3[C@H](O)[C@@H](C)[C@H]4OC(=O)c1ccc[nH]1 [Example 2, (3R,4S,7S,8aS,10aR,11R,12R,13R,14R,14aS,14bS,E)-14-hydroxy-7-methoxy-1,3,13-trimethyl-6-oxo-4-((R)-1-((propylcarbamoyl)oxy)ethyl)-3 ,4,6,7,8,8a,10a,11,12,13,14,14a-dodecahydro-11,14b-epoxynaphtho[2,1-e]oxecin-12-yl 1H-pyrrole-2-carboxylate] | 51.6 µM | 0.035 µM | – | – | – | – | –
